Measurements taken from patent US7601702B2, “Dutpase Inhibitors” (Medivir AB, priority 2004, dated 2009).
Converted amounts (≈) assume the structure as drawn. Structures can show the parent of a compound that is named as a salt. Where two headings read alike, the source gives them in different places.

Columns and labels:
[1] = target: T1, Plasmodium falciparum dUTPase (Plasmodium falciparum, UniProt Q8II92); assay: Malaria enzyme assay: inhibition of Plasmodium falciparum dUTPase; assay type: biochemical
T1 construct: made in house; host or cells: E. coli BL21 (DE3)
T1 sequence (Q8II92 1-173): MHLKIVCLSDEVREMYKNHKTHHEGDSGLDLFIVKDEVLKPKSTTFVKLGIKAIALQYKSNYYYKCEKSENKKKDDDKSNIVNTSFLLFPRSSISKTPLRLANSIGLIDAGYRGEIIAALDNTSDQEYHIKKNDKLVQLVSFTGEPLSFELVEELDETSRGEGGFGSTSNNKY
Procedure: Inhibition of Plasmodium falciparum dUTPase
2′-dUTP, was purchased from Pharmacia. MgCl2, BSA, and the pH indicator cresol red were from Sigma. The buffer N,N-bis(2-hydroxyethyl)glycine (BICINE) was obtained from USB (United States Biochemical), Ohio. All the concentrations of nucleotides were calculated spectrophotometrically (HP-8453, Hewlett Packard) at 280 nm, using the extinction coefficient (ε280 nm=1.75 ml mg^−1cm^−1). Other chemicals used in these experiments were of the highest quality available.
Recombinant P. falciparum dUTPase was purified from E. coli BL21 (DE3) cells transformed with pET-PFdut. Pellets from a liter of culture were resuspended in a solution consisting of buffer A (20 mM MES pH 5.5, 50 mM NaCl, 1 mM DTT) plus the protease inhibitors 1 mM PMSF, 20 μg/ml leupeptin and 1 mM benzamidine. Purification was carried out in a cold room (4° C.). The soluble crude extract was obtained by sonication in a Vibra-cell (Sonics and Materials Inc. Danbury, Conn., USA) and centrifugation at 14000×g. The extract was loaded onto a phosphocellulose column (Whatman) pre-equilibrated with buffer A at a flow rate of 1 ml/min. After washing the column with 100 ml of buffer A, elution was performed using a linear NaCl gradient of 50 to 1000 mM. Peak fractions with a low concentration of contaminating protein, as judged by 15% SDS-PAGE gels, were pooled and then loaded and chromatographed on a Superdex 200 column at a flow rate of 0.5 ml/min. The column was equilibrated with buffer B (50 mM Bicine, 1 mM DTT, 10 mM MgCl2). Peak fractions were pooled and concentrated to about 5 mg/ml by ultrafiltration in a Centripep tube (Amicon) and stored at −80° C.
Nucleotide hydrolysis was monitored by mixing enzyme and substrate with a rapid kinetic accessory (Hi-Tech Scientific) attached to a spectrophotometer (Cary 50) and connected to a computer for data acquisition and storage. Protons, released through the hydrolysis of nucleotides, were neutralised by a pH indicator in a weak buffered medium with similar pKa and monitored spectrophotometrically at the absorbance peak of the basic form of the indicator. Absorbance changes were kept within 0.1 units. The indicator/buffer pair used was cresol red/BICINE ([…], pH 8, 573 nm). The measurements were performed at 25° C., and the solutions were previously degassed. Assays contained 30 nM purified recombinant enzyme, 50 μM dUTP, 5 mM MgCl2 and 2.5 mM DTT, 1.25 mg/ml BSA and 100 mM KCl. Indicator absorbance changes corresponding to complete hydrolysis of nucleotides were recorded in the computer, and the kinetic parameters Vmax and Kmapp (or slope) were calculated by fitting the data to the integrated Michaelis-Menten equation (Segel, 1975). [dUMP]/t=Vmax−Kmap/t ln [dUTP]([dUTP]−[dUMP])
Solutions of potential inhibitors were prepared at 10 mg/ml and tested routinely at concentrations of […]. A wider range of concentrations was further tested when necessary for Ki determination. The different apparent Km values attained were plotted against inhibitor concentration and Ki values were obtained according to the following equation: […]

Plasmodium falciparum = assay: Malaria whole cell assay (cell culture); assay type: cell-based; conditions: read-out: ED50 (the source's name)
Procedure: (§1) Two strains of P. falcipanum are used in this study: The drug sensitive NF54 (an airport strain of unknown origin) and K1 (Thailand, chloroquine and pyrimethamine resistant). The strains are maintained in RPMI-1640 medium with 0.36 mM hypoxanthine supplemented with 25 mM HEPES, 25 mM NaHCO3, neomycin (100 U/ml) and Albumax® (lipid-rich bovine serum albumin) (GIBCO, Grand Island, N.Y.) (5 g/l), together with 5% washed human A+ erythrocytes. All cultures and assays are conducted at 37° C. under an atmosphere of 4% CO2, 3% O2 and 93% N2. Cultures are kept in incubation chambers filled with the gas mixture. Subcultures are diluted to a parasitaemia of 0.1-0.5% and the medium changed daily.
(§2) Antimalarial activity is assessed using an adaptation of the procedures described by Desjardins et al. (Antimicrob. Agents Chemother. 16(6):710-8, 1979), and Matile and Pink (In: Lefkovits, I. and Pernis, B. (Eds.). Immunological Methods. Academic Press, San Diego, pp. 221-234, 1990).
After use the stocks are kept at −20° C. The compound is further diluted to the appropriate concentration using complete medium without hypoxanthine.
Assays are performed in sterile 96-well microtiter plates, each well containing 200 μl of parasite culture (0.15% parasitemia, 2.5% hematocrit) with or without serial drug solutions. Seven 2-fold dilutions are used covering a range from 5 μg/ml to 0.078 μg/ml.
After 48 hours of incubation at 37° C., 0.5 μCi ^3H-hypoxanthine is added to each well. Cultures are incubated for a further 24 h before they are harvested onto glass-fiber filters and washed with distilled water. The radioactivity is counted using a Betaplate™ liquid scintillation counter (Wallac, Zurich, Switzerland). […] From the sigmoidal inhibition curves IC50 values are calculated.
K1 strain is used. The compounds are tested at 7 concentrations (5000 to 78 ng/ml). Artemisinin and chloroquine are included as reference drugs.

P. falciparum NF54 = assay: Malaria whole cell assay, NF54 strain; assay type: cell-based; conditions: Plasmodium falciparum
Procedure: as §1, §2
(§3) After use the stocks are kept at −20° C. The compound is further diluted to the appropriate concentration using complete medium without hypoxanthine. […]
(§4) After 48 hours of incubation at 37° C., 0.5 μCi ^3H-hypoxanthine is added to each well. […] The radioactivity is counted using a Betaplate™ liquid scintillation counter (Wallac, Zurich, Switzerland). […] From the sigmoidal inhibition curves IC50 values are calculated. […]

P. falciparum K1 = assay: Malaria whole cell assay, K1 strain; assay type: cell-based; conditions: Plasmodium falciparum
Procedure: as §1, §2, §3, §4

[2] = Plasmodium falciparum enzyme, read-out: Ki

| Structure (SMILES) | Ki [1, 2] [µM] | EC50 (Plasmodium falciparum) [µM] | melting point [°C] | Ki [1] [µM] | further results |
| --- | --- | --- | --- | --- | --- |
| O=c1ccn([C@H]2C[C@H](O)[C@@H](COC(c3ccccc3)(c3ccccc3)c3ccccc3)O2)c(=O)[nH]1 [drawing 55 Ph3CO, 5′-O-trityl-2′-deoxyuridine] | 1.8 | 6 | – | – | – |
| O=c1ccn(C2CC(O)C(CNC3(c4ccccc4)c4ccccc4Oc4ccccc43)O2)c(=O)[nH]1 (stereo not shown) [Example 26, 5′-Pixylamino-2′,5′-dideoxyuridine] | – | – | 117 to 119 | – | – |
| COc1ccc(C(NC[C@H]2O[C@@H](n3ccc(=O)[nH]c3=O)CC2O)(c2ccccc2)c2ccccc2)cc1 (stereo partly shown) (as salt: salt) [Example 23, 5′-paraMethoxytritylamino-2′,5′-dideoxyuridine] | – | – | 140 to 142 | – | – |
| CC(C)(C)[Si](OCC1C=CC(n2ccc(=O)[nH]c2=O)O1)(c1ccccc1)c1ccccc1 (stereo not shown) [drawing 57 TBDPSO, 5′-O-tert-butyldiphenylsilyl-2′,3′-dideoxydidehydrouridine] | 1.2 | 3 | – | – | – |
| CC(C)(C)[Si](C)(C)OC1CC(n2ccc(=O)[nH]c2=O)OC1COC(c1ccccc1)(c1ccccc1)c1ccccc1 (stereo not shown) [drawing 56 Ph3CO, 1-[4-(tert-Butyl-dimethyl-silanyloxy)-5-trityloxymethyl-tetrahydro-furan-2-yl]-1H pyrimidine-2,4-dione] | – | 1 | – | 515 | – |
| O=c1ccn([C@H]2C[C@H](F)[C@@H](CNC(c3ccccc3)(c3ccccc3)c3ccccc3)O2)c(=O)[nH]1 [drawing 58 Ph3NH, 3′-Fluoro-5′-tritylamino-2′,3′,5′-trideoxyuridine] | – | 5.3 | – | 12 | – |
| O=c1ccn([C@H]2C[C@H](O)[C@@H](CO[Si](c3ccccc3)(c3ccccc3)c3ccccc3)O2)c(=O)[nH]1 [drawing 55 TPSO, 5′-O-Triphenylsilyl-2′-deoxyuridine] | 2.8 | 1.1 | – | – | – |
| O=c1ccn([C@H]2C[C@H](F)[C@@H](CO[Si](c3ccccc3)(c3ccccc3)c3ccccc3)O2)c(=O)[nH]1 [drawing 58 TPSO, 3′-Fluoro-5′-O-triphenylsilyl-2′,3′-dideoxyuridine] | – | 1 | – | 975 | – |
| CC(C)(C)[Si](OC[C@H]1O[C@@H](n2ccc(=O)[nH]c2=O)CC1F)(c1ccccc1)c1ccccc1 (stereo partly shown) [drawing 58 TBDPSO, 3′-Fluoro-5′-O-tert-Butyidiphenylsilyl-2′,3′-dideoxyuridine] | – | 8.8 | – | 89 | – |
| CC(C)(C)[Si](OC[C@H]1O[C@@H](n2ccc(=O)[nH]c2=O)C[C@@H]1O)(c1ccccc1)c1ccccc1 [drawing 55 TBDPSO, 5′-O-tert-Butyldiphenylsilyl-2′-deoxyuridine] | 4.2 | 6.6 | – | – | – |
| CC(C)(C)[Si](C)(C)OC1C[C@H](n2ccc(=O)[nH]c2=O)O[C@@H]1CNC(c1ccccc1)(c1ccccc1)c1ccccc1 (stereo partly shown) [drawing 56 Ph3NH, 3′-O-tertbutyldimethylsilyl-5′-Tritylamino-2′,5-dideoxyuridine] | – | 1.8 | – | 313 | – |
| O=c1ccn([C@H]2C=C[C@@H](CO[Si](c3ccccc3)(c3ccccc3)c3ccccc3)O2)c(=O)[nH]1 [drawing 57 TPSO, 5′-Triphenylsilyloxy-2′,3′-dideoxydidehydrouridine] | – | 1 | – | 1.3 | – |
| O=c1ccn([C@H]2C[C@H](O)[C@@H](CNC(c3ccccc3)(c3ccccc3)c3ccccc3)O2)c(=O)[nH]1 [drawing 55 Ph3CNH, 5′-Tritylamino-2′,5′-dideoxyuridine] | 0.2 | 4.5 | – | – | – |
| COc1ccc(C(OC[C@H]2O[C@@H](n3ccc(=O)[nH]c3=O)CC2O)(c2ccccc2)c2ccccc2)cc1 (stereo partly shown) [Example 20, 5′-O-paramethoxytrityl-2′-deoxyuridine] | – | – | 96 to 97 | – | – |
| O=c1ccn(C2CC(O)C(CNC(c3ccccc3)(c3ccccc3)c3ccncc3)O2)c(=O)[nH]1 (stereo not shown) [Example 8, 5′-(4-pyridydiphenylmethyl)amino-2′,5′-dideoxyuridine] | – | – | 131 to 133 | – | – |
| O=c1ccn([C@H]2C[C@H](O)[C@@H](CNC(c3ccccc3)(c3ccccc3)c3ccccc3Cl)O2)c(=O)[nH]1 [Example 24, 5′-[(2-chlorotrityl)amino]2′,5′-dideoxyuridine] | – | – | 129 to 131 | – | – |
| CCN(CC)CCCC(C)Nc1ccnc2cc(Cl)ccc12 (stereo not shown) [chloroquine] | – | – | – | – | IC50 (P. falciparum NF54; NF54): 2.9 ng/mL (≈ 9.07 nM); IC50 (P. falciparum K1; K1): 48 ng/mL (≈ 150 nM) |
| O=c1ccn([C@H]2C[C@H](F)[C@@H](COC(c3ccccc3)(c3ccccc3)c3ccccc3)O2)c(=O)[nH]1 [drawing 58 Ph3CO, 3′-Fluoro-5′-O-trityl-2′,3′-dideoxyuridine] | 5 | 2 | – | – | – |
| N#Cc1ccc(C(NC[C@H]2O[C@@H](n3ccc(=O)[nH]c3=O)C[C@@H]2O)(c2ccccc2)c2ccccc2)cc1 [Example 22, 5′-[(4-cyanotrityl)amino]-2′,5′-dideoxyuridine] | – | – | 160 to 163 | – | – |
| C[C@@H]1CC[C@H]2[C@@H](C)C(=O)O[C@@H]3O[C@@]4(C)CC[C@@H]1[C@]32OO4 [artemisinin] | – | – | – | – | IC50 (P. falciparum NF54; NF54 strain, read-out: IC50): 1.9 ng/mL (≈ 6.73 nM); IC50 (P. falciparum K1; K1 strain, read-out: IC50): 0.8 ng/mL (≈ 2.83 nM) |
